From US10093627B2, “Tetrahydroquinoline derivatives and their use as Epac inhibitors” (Institut National de la Sante et de la Recherche Medicale …, priority 2012, dated 2018)

Legend:
[1] = tested on: Iso-induced ANF-Luc transcriptional activation; assay: ANF-Luc transcriptional activation (Firefly luciferase assay) in rat neonatal cardiomyocytes; assay type: cell-based; conditions: CE3F4 20 μM, 30 min pretreatment; Iso 10 μM, 8 h; FIG. 4A
Method: ANF and NFAT promoters were fused to the Firefly luciferase gene (ANF-Luc) (NFAT-Luc) to detect ANF and NFAT by Firefly Luciferase assay (see Materiel and Methods).
Rat neonatal cardiomyocytes were cotransfected with ANF-Luc and Epac1 or empty vector pcDNA3 as control. One day after transfection, cells were pretreated or not with CE3F4 (20 μM) for 30 min and stimulated or not with Iso (10 μM) for 8 h. Cells were then assayed for Luciferase activity. B) Iso-induced NFAT-Luc Transcriptional Activation is Blocked by CE3F4: Neonatal cardiomyocytes were transfected with NFAT-Luc. One day later cells were pretreated or not with CE3F4 (20 μM) for 30 min and stimulated or not with Iso (10 μM) for 8 h. The day after, cells were assayed for Luciferase activity.
Results were normalized to control for each experiment, and were expressed as means±S.E.M of at 4 (FIG. 4A) or 5 (FIG. 4B) independent experiments performed in triplicates.
The rat ANF promoter fused to the Firefly luciferase reporter gene (ANF-Luc) by Dr K. Knowlton, Epac and Rap1 plasmid construct (Epac1^WT) by Drs J. L. Bos and J. de Gunzburg, respectively. The Firefly luciferase reporter plasmid driven by four NFAT consensus binding sites (NFAT-Luc) was purchased from Stratagene. […]
Cells were lysed, and luminescence was detected using the Luciferase Assay System (Promega) according to the manufacturer's instructions with Tecan Infinite.

Epac2(AB) = target: T1, Epac2(AB) (Homo sapiens, UniProt Q8WZA2); assay: In vitro GEF activity (initial velocity of GDP exchange on Rap1A) of Epac2(AB); assay type: biochemical; conditions: 50 μM racemic CE3F4; agonist 50 μM 007 or 300 μM cAMP; FIG. 6A
T1 construct: Human Epac2(AB) (amino acids 43-1011) carries both the CNB-A and the CNB-B domains; made in house; host or cells: Escherichia coli Rosetta 2(DE3)
T1 sequence (Q8WZA2 43-1011): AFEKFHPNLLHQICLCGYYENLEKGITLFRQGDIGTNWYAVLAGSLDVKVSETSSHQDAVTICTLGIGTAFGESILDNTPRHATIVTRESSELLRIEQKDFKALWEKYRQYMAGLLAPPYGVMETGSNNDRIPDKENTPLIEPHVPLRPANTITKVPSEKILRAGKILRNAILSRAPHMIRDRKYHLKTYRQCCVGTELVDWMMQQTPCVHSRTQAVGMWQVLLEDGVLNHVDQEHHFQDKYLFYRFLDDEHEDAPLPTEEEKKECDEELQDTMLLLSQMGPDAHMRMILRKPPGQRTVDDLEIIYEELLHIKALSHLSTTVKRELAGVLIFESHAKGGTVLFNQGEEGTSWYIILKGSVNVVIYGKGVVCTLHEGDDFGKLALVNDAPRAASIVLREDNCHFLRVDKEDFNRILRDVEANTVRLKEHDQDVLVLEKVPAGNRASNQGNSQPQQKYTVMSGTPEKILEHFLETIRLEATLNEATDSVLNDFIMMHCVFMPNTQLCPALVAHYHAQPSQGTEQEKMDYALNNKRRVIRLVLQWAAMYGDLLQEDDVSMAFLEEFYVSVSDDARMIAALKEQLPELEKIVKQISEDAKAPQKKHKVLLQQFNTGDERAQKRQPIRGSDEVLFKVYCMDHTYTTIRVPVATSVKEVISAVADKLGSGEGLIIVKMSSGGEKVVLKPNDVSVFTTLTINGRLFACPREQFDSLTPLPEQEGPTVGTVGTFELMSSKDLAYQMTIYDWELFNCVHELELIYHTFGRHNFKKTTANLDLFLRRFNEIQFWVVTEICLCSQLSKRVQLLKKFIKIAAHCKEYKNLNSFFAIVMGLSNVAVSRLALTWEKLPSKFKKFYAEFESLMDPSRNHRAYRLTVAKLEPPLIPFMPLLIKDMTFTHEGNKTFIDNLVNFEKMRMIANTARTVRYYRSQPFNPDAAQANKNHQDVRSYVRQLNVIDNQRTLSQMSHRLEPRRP
Excerpt: Human Epac2(AB) (amino acids 43-1011) carries both the CNB-A and the CNB-B domains. Human Epac2(B) (amino acids 283-1011) lacks the first 283 amino acids of Epac2. It is therefore deleted of its CNB-A and DEP domains, but retains the CNB-B domain and the full catalytic region. Epac2(AB) was obtained by HindIII/NotI restriction and Epac2(B) was obtained by Ssp1/Not1 restriction of a human Epac2A cDNA (a gift from Ann M Graybiel, Department of Brain and Cognitive Sciences, MIT, Cambridge). Both cDNA fragments were inserted into pET41a (Novagen), expressed in Escherichia coli Rosetta 2(DE3) (Novagen), and the GST-tagged fusion proteins were purified by nickel-nitrilotriacetic acid beads (Qiagen), as described in D. Courilleau, et al., Identification of a tetrahydroquinoline analog as a pharmacological inhibitor of the cAMP-binding protein Epac, J. Biol. Chem. 287 (2012) 44192-44202).
In vitro GDP exchange catalyzed by Epac was measured using purified recombinant Epac isoforms and Rap1A loaded with Bodipy-GDP, as described in D. Courilleau, et al (above mentioned). […] The release of Bodipy-GDP was measured in real time as the decay of fluorescence. […] The initial velocity (Vi) of GDP exchange on Rap1 was calculated as described in D. Courilleau et al.).
Data are expressed as mean±S.D. Differences in quantitative variables were examined by unpaired one- or two-tailed Student's t test. […]

- Effect on Iso-induced ANF-Luc gene transcriptional activity [1]: significantly inhibited
- Inhibitory effect on GEF activity of Epac2(AB), compared with Epac2(B) (Epac2(AB)): no significant difference
SMILES: CC1CCc2c(cc(Br)c(F)c2Br)N1C=O (racemic) [CE3F4]
